Laboratory results as given in patent publication US8815900B2, “Compounds and compositions for reducing lipid levels” (CVI Pharmaceuticals Limited, priority 2007, dated 2014).

Tests used:
[1] = test system: LDLR mRNA expression in HepG2 cells; assay: LDLR mRNA expression in HepG2 cells, quantitative real-time RT-PCR; assay type: cell-based, Human; settings: 24 hours, indicated concentrations (FIG. 19A)
Procedure: In yet another experiment, HepG2 cells were treated with various compounds for 24 hours at the indicated doses. Total RNA was isolated and 2 μg was used to generate cDNA in a reaction containing random primers and M-MLV at 37° C. for 1 hour in a volume of […] Real-time PCR was performed on the cDNA using MCEP REALPLEX 2 SYSTEM (Eppendorf) and Universal MasterMix (Applied Biosystems). Human LDLR and GAPDH Pre-Developed TaqMan Assay Reagents (Applied Biosystems) were used to assess the levels of mRNA expressions in HepG2. The levels of LDLR mRNA were normalized to that of GAPDH. Each RNA samples was assayed in triplicate. The abundance of LDLR mRNA in untreated cells was defined as 1, and the amounts of LDLR mRNA from compound-treated cells were plotted relative to that value in FIG. 13. The data shown are mean±s.d.
Activities of some compounds of Formulas I, II, III, and IV on LDLR mRNA expression were determined. HepG2 cells were treated with new compounds individually at a dose less than or equal to 10 μM for 24 hours. Total RNA was harvested for quantitative real-time RT-PCR analysis using the method described in Example 16B. […] In these experiments, berberine chloride was included for comparison.
Quantitative real-time RT-PCR was conducted, and triplicate was assayed in each RNA sample. The data are mean value of triplicates.
Total RNA was harvested for quantitative real-time RT-PCR analysis using method described in Examples 16B.

[2] = test system: PCSK9 mRNA expression in HepG2 cells; assay: PCSK9 mRNA expression in HepG2 cells, quantitative real-time RT-PCR; assay type: cell-based, Human; settings: 24 hours, indicated concentrations (FIG. 19B)
Procedure: The effects of compounds of Formula I, II, III, and IV on the inhibition of PCSK9 mRNA expression was examined (Horton J D, Cohen J C, Hobbs H H. “Molecular biology of PCSK9: its role in LDL metabolism” TRENDS in Biochemical Sciences 2007; 32:71-77; Cameron J, Ranheim T, Kulseth M A, Leren T P, Berge K E. “Berberine decreases PCSK9 expression in HepG2 cells” Atherosclerosis, 2008 online publication). HepG2 cells were treated with new compounds individually at 10 uM dose for 24 hours. Total RNA was harvested for quantitative real-time RT-PCR analysis using method described in Example 16B. The fold activity was derived by dividing the amount of normalized PCSK9 mRNA in compound-treated cells over the amount of PCSK9 mRNA in untreated control cells. In these experiments, berberine chloride (10 uM) was included for comparison (see FIG. 18).
Total RNA was harvested for quantitative real-time RT-PCR analysis using method described in Examples 16B. The fold activity was derived by dividing the amount of normalized LDLR or PCSK9 mRNA in compound-treated cells over the amount of LDLR or PCSK9 mRNA in untreated control cells.

COc1cc2c(cc1OC)C1Cc3ccc(OC)c(OS(=O)(=O)c4ccccc4)c3CN1CC2 (centres unmarked) [Compound 91, 2,3,10-trimethoxy-5,6,7,8,13,13a-hexahydroiso-quinolino[2,1-b]isoquinolin-9-yl benzenesulfonate]
LDLR mRNA expression [1]: dose-dependently increases | PCSK9 mRNA expression [2]: inhibits
